The text below walks through data of patent publication US8389523B2, “Substituted quinoxaline and an agrochemical composition thereof” (Kumiai Chemical Industry Co., Ltd., priority 2007, dated 2013).

What all share (format): in vivo
Set-up in all cases: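 grade 0 to 5 of growth suppression where 5 is 90% or more and 0 below 10%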

For assay [1], the system named is Abutilon theophrasti medicus. In words: Herbicidal effects in upland field foliar treatment (Test Example 3). Conditions: criteria of Table 138; for herbicidal effects on Abutilon theophrasti medicus: 1000 g of the active ingredient per hectare, 14th day after the treatment, wettable powder; for herbicidal effect (index) on Abutilon theophrasti medicus: 1000 g active ingredient per hectare, 14th day after treatment. As to the method: (§1) Test Example 3 Test on Herbicidal Effects in Upland Field Foliar Treatment A 80-cm^2 plastic pot was filled with upland field soil. Seeds of Echinochloa crus-galli (L.) P. Beauv. var. crus-galli, Abutilon theophrasti medicus and Amaranthus viridis L. were sowed, and the plants were grown for two weeks in a greenhouse. A wettable powder formulation prepared according to Preparation Example 1 was diluted with water, and was sprayed with a small sprayer to perform foliar application over the entirety of plants from the upper side, in an amount equivalent to 1000 liters per hectare, such that 1000 g of the active ingredient per hectare was applied. Thereafter, the plants were grown in a greenhouse, and on the 14th day after the treatment, the herbicidal effects were investigated according to the criteria described in the Table 138 shown above.

For assay [2], the system named is Echinochloa crus-galli (L.) P. Beauv. var. crus-galli. Described as above. Conditions: criteria of Table 138; for herbicidal effects on Echinochloa crus-galli (L.) P. Beauv. var. crus-galli: 1000 g of the active ingredient per hectare, 14th day after the treatment, wettable powder; for herbicidal effect (index) on Echinochloa crus-galli (L.) P. Beauv. var. crus-galli: 1000 g active ingredient per hectare, 14th day after treatment. The procedure:
as §1

Assay [3] deals with Amaranthus viridis L. The assay is described as above. The note with it: criteria of Table 138; for herbicidal effects on Amaranthus viridis L.: 1000 g of the active ingredient per hectare, 14th day after the treatment, wettable powder; for herbicidal effect (index) on Amaranthus viridis L.: 1000 g active ingredient per hectare, 14th day after treatment. The procedure: as §1
Assay [4] concerns Echinochloa oryzicola Vasing. Nature of the assay: Herbicidal effects in paddy field soil treatment (Test Example 1). Conditions: paddy field soil treatment; 1000 g of the active ingredient per hectare; wettable powder added dropwise on water surface; 21st day after treatment. An outline of the steps:
(§2)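 Paddy soil pre-emergence test: seeds sown, flooded 3 cm; next day wettable powder in water applied dropwise to water surface, 1000 g a.i./ha; greenhouse; effect rated visually on scale at 21 d post-treatment.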

For assay [5], the system named is Monochoria vaginalis (Burm. f.) Presl var. plantaginea (Roxb.) Solms-Laub. Described as above. The note with it: paddy field soil treatment; 1000 g of the active ingredient per hectare; wettable powder added dropwise on water surface; 21st day after treatment. An outline of the steps:
as §2

The subject of assay [6] is Scirpus juncoides Roxb. var. ohwianus. T. Koyama. The assay is described as above. The note with it: paddy field soil treatment; 1000 g of the active ingredient per hectare; wettable powder added dropwise on water surface; 21st day after treatment. An outline of the steps: as §2

On to `CC(C)Oc1cccc(-n2c(=O)c(C(=O)C3=C(O)CCCC3=O)nc3ccccc32)c1` [II-74], for which, in assay [1], the “herbicidal effects on Abutilon theophrasti medicus” value is 4. In addition, the “herbicidal effects on Echinochloa crus-galli (L.) P. Beauv. var. crus-galli” value in assay [2] came to 3. Further, in assay [3], the “herbicidal effects on Amaranthus viridis L.” value came to 4. In addition, in assay [4], the “Herbicidal effects index, Echinochloa oryzicola Vasing” value turned out to be 5. Moreover, the “Herbicidal effects index, Monochoria vaginalis (Burm. f.) Presl var. plantaginea (Roxb.) Solms-Laub.” value (“Herbicidal effects index … (Roxb.) Solms-Laub.” for short) in assay [5] is recorded as 5. Further, the “Herbicidal effects index, Scirpus juncoides Roxb. var. ohwianus. T. Koyama” value in assay [6] was 5.

Take `C[S+]([O-])CCOCn1c(=O)c(C(=O)C2=C(O)CCCC2=O)nc2ccccc21` (stereo not drawn) [I-67]: the “herbicidal effect (index) on Abutilon theophrasti medicus” value in assay [1] is 5. In addition, the “herbicidal effect (index) on Echinochloa crus-galli (L.) P. Beauv. var. crus-galli” value in assay [2] worked out at 4. The “herbicidal effect (index) on Amaranthus viridis L.” value in assay [3] is reported as 5. Further, the “Herbicidal effects index, Echinochloa oryzicola Vasing” value in assay [4] amounted to 4. The “Herbicidal effects index … (Roxb.) Solms-Laub.” value in assay [5] is 5. Also, the “Herbicidal effects index, Scirpus juncoides Roxb. var. ohwianus. T. Koyama” value in assay [6] is 5.

Turning to `O=C1CCCC(O)=C1C(=O)c1nc2ccccc2n(Cc2cccc(Cl)c2)c1=O` [I-112], the “herbicidal effect (index) on Abutilon theophrasti medicus” value in assay [1] is given as 5. The “herbicidal effect (index) on Echinochloa crus-galli (L.) P. Beauv. var. crus-galli” value in assay [2] came out at 4. In addition, in assay [3], the “herbicidal effect (index) on Amaranthus viridis L.” value is on record as 5. The “Herbicidal effects index, Echinochloa oryzicola Vasing” value in assay [4] came to 5. Besides, the “Herbicidal effects index … (Roxb.) Solms-Laub.” value in assay [5] is 5. Further, the “Herbicidal effects index, Scirpus juncoides Roxb. var. ohwianus. T. Koyama” value in assay [6] stood at 5.

Take `COc1ccc(-n2c(=O)c(C(=O)C3=C(O)CCCC3=O)nc3cccc(Cl)c32)cc1` [II-197]: in assay [1], the “herbicidal effects on Abutilon theophrasti medicus” value was found to be 4. In addition, in assay [2], the “herbicidal effects on Echinochloa crus-galli (L.) P. Beauv. var. crus-galli” value worked out at 5. In assay [3], the “herbicidal effects on Amaranthus viridis L.” value was 5. In addition, the “Herbicidal effects index, Echinochloa oryzicola Vasing” value in assay [4] is 5. In addition, in assay [5], the “Herbicidal effects index … (Roxb.) Solms-Laub.” value is reported as 5. For the same compound, the “Herbicidal effects index, Scirpus juncoides Roxb. var. ohwianus. T. Koyama” value in assay [6] is reported as 5.

Turning to `O=C1CCCC(O)=C1C(=O)c1nc2cccnc2n(CCc2ccccc2)c1=O` [III-235], the “herbicidal effects on Abutilon theophrasti medicus” value in assay [1] came to 5. The “herbicidal effects on Echinochloa crus-galli (L.) P. Beauv. var. crus-galli” value in assay [2] was 5. For the same compound, the “herbicidal effects on Amaranthus viridis L.” value in assay [3] is 5. In assay [4], the “Herbicidal effects index, Echinochloa oryzicola Vasing” value was 5. In addition, the “Herbicidal effects index … (Roxb.) Solms-Laub.” value in assay [5] was 5. In addition, in assay [6], the “Herbicidal effects index, Scirpus juncoides Roxb. var. ohwianus. T. Koyama” value was 5.

For the compound `CSc1cccc(-n2c(=O)c(C(=O)C3=C(O)CCCC3=O)nc3ccccc32)c1` [II-121], the “herbicidal effects on Abutilon theophrasti medicus” value in assay [1] turned out to be 4. Besides, the “herbicidal effects on Echinochloa crus-galli (L.) P. Beauv. var. crus-galli” value in assay [2] was 4. Further, the “herbicidal effects on Amaranthus viridis L.” value in assay [3] is 4. For the same compound, in assay [4], the “Herbicidal effects index, Echinochloa oryzicola Vasing” value is recorded as 4. Also, the “Herbicidal effects index … (Roxb.) Solms-Laub.” value in assay [5] was 5. Moreover, the “Herbicidal effects index, Scirpus juncoides Roxb. var. ohwianus. T. Koyama” value in assay [6] worked out at 5.

With `O=C1CCCC(O)=C1C(=O)c1nc2ccccc2n(C2CCS(=O)(=O)C2)c1=O` (stereo not drawn) [I-137], the “herbicidal effect (index) on Abutilon theophrasti medicus” value in assay [1] came to 5. Also, in assay [2], the “herbicidal effect (index) on Echinochloa crus-galli (L.) P. Beauv. var. crus-galli” value came out at 4. Also, the “herbicidal effect (index) on Amaranthus viridis L.” value in assay [3] stood at 5. Further, the “Herbicidal effects index, Echinochloa oryzicola Vasing” value in assay [4] was 5. The “Herbicidal effects index … (Roxb.) Solms-Laub.” value in assay [5] is listed as 5. Besides, the “Herbicidal effects index, Scirpus juncoides Roxb. var. ohwianus. T. Koyama” value in assay [6] was 5.

Regarding `CCCOc1cccc(-n2c(=O)c(C(=O)C3=C(O)CCCC3=O)nc3ccccc32)c1` [II-71], in assay [1], the “herbicidal effects on Abutilon theophrasti medicus” value was found to be 5. In addition, the “herbicidal effects on Echinochloa crus-galli (L.) P. Beauv. var. crus-galli” value in assay [2] worked out at 4. Also, the “herbicidal effects on Amaranthus viridis L.” value in assay [3] is 5. The “Herbicidal effects index, Echinochloa oryzicola Vasing” value in assay [4] is 4. Further, the “Herbicidal effects index … (Roxb.) Solms-Laub.” value in assay [5] is recorded as 5. For the same compound, the “Herbicidal effects index, Scirpus juncoides Roxb. var. ohwianus. T. Koyama” value in assay [6] stood at 5.
